From PMC9088825, “N ^α-arylsulfonyl histamines as selective β-glucosidase inhibitors” (RSC Advances, 2018)
Like-named read-outs stand apart in the source and are kept apart here. Blank lines part the entries; values can stand above or below the molecule they belong to.

Columns and labels:
β-Glc (from almonds) [1] = assay: β-Glc microplate assay (hydrolysis of p-nitrophenyl-β-D-glucopyranoside); assay type: biochemical; conditions: for IC50: microplate assay, β-PNPG substrate, pH 7, 37 °C, read-out: IC50 (β-Glc inhibition)
Description: The final volume in well was 270 μL. The enzymatic reaction was initiated by addition of β-PNPG (1.63 mM end concentration in well). […] For IC50 determination, ten serial dilutions of the compounds were prepared in DMSO, following equally spaced points in […] logarithm scale, starting at 16.2 mM and finishing at 1.7 μM. IC50 was calculated using Prism V5.01 (GraphPad Software Inc., La Jolla, CA, USA) requesting the software a non-linear regression curve fit for a log[Inhibitor] vs. normalized answer model with variable slope.

β-Glc (from almonds) [2] = conditions: cited from earlier work
β-Glc [3] = conditions: cited from earlier work
β-galactosidase (β-Gal) [4] = target: T1, β-galactosidase (β-Gal) (Kluyveromyces lactis, UniProt P00723); parameters: method as in earlier work; conditions: ref 1 (Kato et al., J. Med. Chem., 2005, 48, 2036-2044); read-out: IC50 (β-Gal), reference inhibitor; cited from earlier work
T1 sequence (P00723 whole entry): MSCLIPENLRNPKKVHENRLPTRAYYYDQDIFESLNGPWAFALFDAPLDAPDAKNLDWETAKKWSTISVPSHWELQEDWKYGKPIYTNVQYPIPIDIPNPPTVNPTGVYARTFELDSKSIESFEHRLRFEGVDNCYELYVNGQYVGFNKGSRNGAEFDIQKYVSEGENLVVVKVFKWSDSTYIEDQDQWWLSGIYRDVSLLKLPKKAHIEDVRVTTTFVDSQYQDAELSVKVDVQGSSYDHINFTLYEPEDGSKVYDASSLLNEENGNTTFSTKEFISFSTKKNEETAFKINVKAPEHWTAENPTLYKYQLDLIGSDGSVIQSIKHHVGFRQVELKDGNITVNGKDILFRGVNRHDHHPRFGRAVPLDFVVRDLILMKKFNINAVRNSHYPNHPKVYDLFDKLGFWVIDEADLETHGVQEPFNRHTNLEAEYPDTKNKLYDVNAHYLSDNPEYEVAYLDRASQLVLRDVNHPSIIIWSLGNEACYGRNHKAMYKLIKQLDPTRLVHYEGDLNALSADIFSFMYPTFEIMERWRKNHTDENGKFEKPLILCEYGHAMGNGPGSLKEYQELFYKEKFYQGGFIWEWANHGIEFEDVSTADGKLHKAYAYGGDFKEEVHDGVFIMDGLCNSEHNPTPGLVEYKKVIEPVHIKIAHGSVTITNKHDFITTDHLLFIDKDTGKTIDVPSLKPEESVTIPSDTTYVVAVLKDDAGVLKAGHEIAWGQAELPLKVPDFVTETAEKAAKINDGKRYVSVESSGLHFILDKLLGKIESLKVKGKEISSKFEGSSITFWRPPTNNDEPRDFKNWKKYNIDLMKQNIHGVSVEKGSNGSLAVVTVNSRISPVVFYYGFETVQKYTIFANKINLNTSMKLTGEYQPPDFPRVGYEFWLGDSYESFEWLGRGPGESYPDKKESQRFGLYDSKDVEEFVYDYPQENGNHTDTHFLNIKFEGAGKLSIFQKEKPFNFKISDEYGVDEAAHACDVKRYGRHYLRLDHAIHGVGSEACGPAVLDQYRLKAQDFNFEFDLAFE

β-Glc [5] = assay: Kinetic experiments (Lineweaver–Burk, Ki); assay type: biochemical, almonds
Description: Microplate assay was carried on varying substrate concentration between 0.022 and 7.2 mM; as well as the inhibitor concentration was varied between 0.239 and 0.0061 mM. Initial velocities vs. [S] curves were obtained with Michaelis–Menten equation adjustment. After that, Lineweaver–Burk linearization plot and the secondary linearization of Slopes vs. [I] reveled type of inhibition and Ki value respectively. All the data acquired was treated through Prism V5.01 (GraphPad Software Inc.).

β-galactosidase (β-Gal) [6] = target: T1, β-galactosidase (β-Gal); assay: β-Gal microplate assay; assay type: biochemical; conditions: up to 3.500 mM
Description: Similar to the method applied in β-Glc assay, the hydrolysis of o-nitrophenyl-β-O-D-galactopyranoside (β-ONPG) was continuously measured in 96-well microplate. Wells were filled in triplicate with β-Gal (Kluyveromyces lactis) in 50 mM buffer phosphate, pH 7 (7.20 μU mL^−1 final concentration in well) and 10 μL of test compound in dimethylsulfoxide (DMSO) solution (100 μM or 500 μM end concentration in well). The final volume in well was 270 μL. The enzymatic reaction was initiated by addition of β-ONPG (3.23 mM end concentration in well). The plate was shaken for 2 s and the increase in absorbance at 405 nm was monitored at 37 °C for 10 min. For IC50 determination, eighteen serial dilutions of the compounds were prepared in DMSO, following equally spaced points in neperian logarithm scale, starting at 94.50 mM and finishing at 1.44 μM. IC50 was calculated using Prism V5.01 (GraphPad Software Inc., La Jolla, CA, USA) requesting the software a non-linear regression curve fit for a log[Inhibitor] vs. normalized answer model with variable slope.

xanthine oxidase (XO) = xanthine oxidase (XO) (Bos taurus, UniProt P80457); assay: XO microplate assay (uric acid formation); assay type: biochemical, bovine; conditions: tested at 3 μM
xanthine oxidase (XO), sequence (P80457 whole entry): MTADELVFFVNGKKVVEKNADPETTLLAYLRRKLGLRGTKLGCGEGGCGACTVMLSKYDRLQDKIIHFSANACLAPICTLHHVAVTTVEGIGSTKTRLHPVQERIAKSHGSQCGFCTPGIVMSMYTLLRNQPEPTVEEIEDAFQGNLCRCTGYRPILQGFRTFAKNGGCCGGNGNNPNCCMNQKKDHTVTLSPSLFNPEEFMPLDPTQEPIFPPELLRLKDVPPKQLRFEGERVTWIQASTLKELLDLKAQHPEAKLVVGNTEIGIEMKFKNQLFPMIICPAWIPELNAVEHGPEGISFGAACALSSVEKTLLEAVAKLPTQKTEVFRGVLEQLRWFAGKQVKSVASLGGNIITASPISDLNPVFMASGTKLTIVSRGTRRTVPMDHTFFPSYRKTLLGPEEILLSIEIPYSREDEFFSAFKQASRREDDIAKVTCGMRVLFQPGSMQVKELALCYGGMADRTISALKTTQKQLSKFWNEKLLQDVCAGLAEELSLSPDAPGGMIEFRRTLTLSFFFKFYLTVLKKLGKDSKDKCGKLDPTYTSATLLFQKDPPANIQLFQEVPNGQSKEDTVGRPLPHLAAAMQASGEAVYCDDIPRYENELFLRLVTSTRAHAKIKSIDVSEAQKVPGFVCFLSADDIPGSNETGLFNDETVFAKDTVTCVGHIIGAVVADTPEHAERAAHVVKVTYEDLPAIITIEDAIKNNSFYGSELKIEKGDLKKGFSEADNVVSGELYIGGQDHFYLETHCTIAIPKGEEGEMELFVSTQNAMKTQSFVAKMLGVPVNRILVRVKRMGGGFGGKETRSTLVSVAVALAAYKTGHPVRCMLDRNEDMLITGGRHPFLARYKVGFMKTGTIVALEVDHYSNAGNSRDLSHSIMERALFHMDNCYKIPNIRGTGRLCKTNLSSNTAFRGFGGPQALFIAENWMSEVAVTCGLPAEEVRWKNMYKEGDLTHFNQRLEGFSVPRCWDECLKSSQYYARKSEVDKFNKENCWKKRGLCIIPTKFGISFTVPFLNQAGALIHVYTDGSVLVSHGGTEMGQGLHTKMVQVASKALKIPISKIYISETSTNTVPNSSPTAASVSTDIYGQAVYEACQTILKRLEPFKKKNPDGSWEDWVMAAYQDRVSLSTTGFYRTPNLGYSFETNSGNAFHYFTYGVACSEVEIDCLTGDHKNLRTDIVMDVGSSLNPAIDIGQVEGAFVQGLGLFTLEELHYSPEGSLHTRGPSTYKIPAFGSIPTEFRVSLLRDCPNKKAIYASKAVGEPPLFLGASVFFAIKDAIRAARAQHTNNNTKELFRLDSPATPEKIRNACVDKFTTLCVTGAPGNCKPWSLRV
Description: Following the method previously reported by Chu,[45] the formation of uric acid was continuously measured in 96-well microplate. Each well was filled in triplicates with: of 10 μL test compound in DMSO (0.11 μM end concentration in well) and XO (bovine) in 0.2 M buffer phosphate, pH 7.5 (2.81 μU mL^−1, end concentration in well). […] The final volume in well was 270 μL. The enzymatic reaction was initiated by addition of the xanthine substrate (0.04 mM, end concentration in well). The plate was shaken for 2 s and the increase in absorbance at 295 nm was monitored at 30 °C for 20 min.

[7] = target: acetyl cholinesterase (AChE) (Electrophorus electricus, UniProt O42275); assay type: biochemical, electric eel; conditions: tested at 1.5 μM
acetyl cholinesterase (AChE), sequence (O42275 24-633): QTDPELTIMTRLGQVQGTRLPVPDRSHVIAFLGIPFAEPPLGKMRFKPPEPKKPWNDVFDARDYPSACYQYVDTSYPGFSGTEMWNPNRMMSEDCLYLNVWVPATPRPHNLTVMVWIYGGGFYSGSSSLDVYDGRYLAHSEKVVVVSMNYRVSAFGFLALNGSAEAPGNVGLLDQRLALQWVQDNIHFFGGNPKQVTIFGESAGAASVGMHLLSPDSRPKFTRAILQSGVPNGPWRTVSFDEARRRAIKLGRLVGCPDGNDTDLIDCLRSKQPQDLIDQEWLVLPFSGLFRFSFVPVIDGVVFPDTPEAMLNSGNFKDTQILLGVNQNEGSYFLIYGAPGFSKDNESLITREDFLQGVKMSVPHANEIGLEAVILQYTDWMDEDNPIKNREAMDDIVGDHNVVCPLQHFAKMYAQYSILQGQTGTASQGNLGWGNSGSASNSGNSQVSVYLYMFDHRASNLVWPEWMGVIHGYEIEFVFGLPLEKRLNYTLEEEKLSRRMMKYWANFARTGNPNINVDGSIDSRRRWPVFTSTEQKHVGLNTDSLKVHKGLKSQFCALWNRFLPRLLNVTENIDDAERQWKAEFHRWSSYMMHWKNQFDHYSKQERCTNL
Description: AChE activity measurement was carried on based on Ellman's method.[46] […] The plate was shaken for 2 s and the increase in absorbance at 405 nm was monitored at 37 °C for 15 min.

β-Glc [8] = assay: Jump dilution assay; assay type: biochemical, almonds
Description: After 30 minutes of incubation, the mixture was diluted 100-fold and mixed with the substrate and α-CD to start the reaction. The progress curve of this sample was measured and compared to a sample of enzyme incubated and diluted in the absence of inhibitor. Each incubation and dilution were prepared and measured in triplicate. The percentage of activity recovery was obtained using Prism V5.01 (GraphPad Software Inc.).

[9] = binds the active site of β-Glc from almonds, read-out: Ki (β-Glc from almonds)

SMILES: O=S(=O)(NCCc1cn(S(=O)(=O)c2ccccc2)cn1)c1ccccc1 [II-a, N ^α,N^τ-di-benzenesulfonyl histamine]
- IC50 (β-Glc (from almonds) [2]; read-out: IC50 (β-Glc inhibition), reported value): 250 µM

SMILES: NCCc1c[nH]cn1 [histamine]
- IC50 (β-Glc (from almonds) [1]): > 1000 µM
- Ki (β-Glc [3]; [9]): 2100 µM

SMILES: OC[C@H]1NC[C@H](O)[C@@H](O)[C@H]1O [galacto-DNJ]
- IC50 (β-galactosidase (β-Gal) [4]): 90 µM

SMILES: O=S(=O)(NCCc1c[nH]cn1)c1cc(F)c(F)c(F)c1 [I-g, N ^α-3,4,5-trifluorobenzenesulfonyl histamine]
- IC50 (β-Glc (from almonds) [1]): 71.4 ± 1.02 µM

SMILES: O=S(=O)(NCCc1c[nH]cn1)c1ccc(F)cc1 [I-c, N ^α-4-fluorobenzenesulfonyl histamine]
- Type of inhibition (Lineweaver–Burk plot) (β-Glc [5]; different concentrations of p-NPG and inhibitor): competitive
- Ki (β-Glc [5]; kinetic assays, p-NPG substrate): 8.11 µM
- Inhibition of β-Gal (β-galactosidase (β-Gal) [6]): no inhibition
- inhibition at 3 µM (xanthine oxidase (XO)): 1.31%
- Inhibition of AChE [7]: no inhibition
- IC50 (β-Glc (from almonds) [1]): 65.1 ± 1.04 µM
- % inhibition of β-Glc at 65 μM (β-Glc (from almonds) [1]; tested at 65 μM): 49.94%
- Enzyme activity recovery (jump dilution) (β-Glc [8]; incubated at 10-fold IC50, 30 min, diluted 100-fold): 91%
- Enzyme–inhibitor interaction (reversibility) (β-Glc [8]; jump dilution): reversible

SMILES: Cc1ccc(S(=O)(=O)NCCc2c[nH]cn2)cc1 [I-b, N ^α-p-toluenesulfonyl histamine]
- IC50 (β-Glc (from almonds) [1]): 250 ± 1.03 µM

SMILES: COc1ccc(S(=O)(=O)NCCc2c[nH]cn2)cc1F [I-j, N ^α-3-fluoro-4-methoxybenzenesulfonyl histamine]
- IC50 (β-Glc (from almonds) [1]): 95.5 ± 1.02 µM

SMILES: c1c[nH]cn1 [imidazole]
- Ki (β-Glc [3]; [9]): 530 µM

Second part, led by results:

- IC50 (β-Glc (from almonds) [1]): 197 µM
SMILES: O=S(=O)(NCCc1c[nH]cn1)c1ccccc1 [I-a, N ^α-benzenesulfonyl histamine]

- IC50 (β-Glc (from almonds) [1]): 421.6 ± 0.94 µM
SMILES: Cc1ccc(F)c(S(=O)(=O)NCCc2c[nH]cn2)c1 [I-e, N ^α-2-fluor-5-methylbenzenesulfonyl histamine]
- % of inhibition of β-Glc at 40 μM (β-Glc (from almonds) [1]; fixed compound concentration 40 μM): ≤ 25%

- IC50 (β-Glc (from almonds) [1]): 72.7 ± 1.05 µM
SMILES: O=S(=O)(NCCc1c[nH]cn1)c1ccc(F)cc1C(F)(F)F [I-h, N ^α-2-(trifluoromethyl)-4-fluorobenzenesulfonyl histamine]

- IC50 (β-Glc (from almonds) [1]): 65.2 ± 1.04 µM
SMILES: OC[C@H]1NC[C@H](O)[C@@H](O)[C@@H]1O [1-DNJ, 1-deoxynojirimycin, reference compound]
- IC50 (β-Glc (from almonds) [2]; read-out: IC50 (β-Glc inhibition), reported value for reference inhibitor): 81 µM
- Ki (β-Glc [3]; measured in similar conditions, read-out: Ki (β-Glc), reference compound): 47 µM

- IC50 (β-Glc (from almonds) [1]): 102 ± 1.05 µM
SMILES: O=S(=O)(NCCc1c[nH]cn1)c1c(F)c(F)c(F)c(F)c1F [I-i, N ^α-pentafluorobenzenesulfonyl histamine]

- IC50 (β-Glc (from almonds) [1]): 79.5 ± 1.05 µM
SMILES: O=S(=O)(NCCc1c[nH]cn1)c1ccc(C(F)(F)F)cc1 [I-d, N ^α-4-(trifluoromethyl)benzenesulfonyl histamine]

- IC50 (β-Glc (from almonds) [1]): 244.2 ± 1.09 µM
SMILES: O=S(=O)(NCCc1c[nH]cn1)c1ccc(F)cc1Cl [I-f, N ^α-2-Chloro-4-fluorobenzenesulfonyl histamine]
